According to article PMC6511943, “Structure-Guided Drug Design of 6-Substituted Adenosine Analogues as Potent Inhibitors of Mycobacterium tuberculosis Adenosine Kinase” (Journal of Medicinal Chemistry, 2019):

Test system: Mtb H37Rv-resistant mutants (adoK D251N, Q172P, G262S)
Type: cell-based, Mycobacterium tuberculosis

Nc1ncnc2c1c(I)cn2[C@@H]1O[C@H](CO)[C@@H](O)[C@H]1O [Compound 2, Iodotubercidin]
MIC: > 100 µM
